Test results reported in US12545639B2, “3-substituted phenylamidine compounds, preparation and use thereof” (PI INDUSTRIES LTD., priority 2019, dated 2026).

Key:
Pyricularia oryzae = assay: microbe, parasite or virus in culture; assay type: cell-based; details: 168 h, read-out: control compared to the untreated check (radial growth)
Rhizoctonia solani = Rhizoctonia solani (rice sheath blight/potato black scurf) in vitro test, radial growth on potato dextrose agar; assay type: cell-based; details: 168 h, 300 ppm in potato dextrose agar, 25° C., 60% relative humidity, seven days, read-out: control compared to the untreated check (radial growth)
Botrytis cinerea = Botrytis cinerea (gray mold) in vitro test, radial growth on potato dextrose agar; assay type: cell-based; details: 168 h, 300 ppm in potato dextrose agar, 22° C., 90% relative humidity, seven days, read-out: control compared to the untreated check (radial growth)
Alternaria solani = Alternaria solani (early blight of tomato/potato) in vitro test, radial growth on potato dextrose agar; assay type: cell-based; details: 168 h, 300 ppm in potato dextrose agar, 25° C., 60% relative humidity, seven days, read-out: control compared to the untreated check (radial growth)
Colletotrichum capsici = Colletotrichum capsici (anthracnose) in vitro test, radial growth on potato dextrose agar; assay type: cell-based; details: Colletotrichum truncatum, 168 h; 300 ppm in potato dextrose agar; 25° C., 60% relative humidity, seven days; read-out: control compared to the untreated check (radial growth)
[1] = test system: Septoria lycopersici/Corynespora cassicola (CORYCA); assay: Septoria lycopersici/Corynespora cassicola (CORYCA) (leaf spot of tomato) in vitro test, radial growth on potato dextrose agar; assay type: cell-based; details: 168 h, 300 ppm in potato dextrose agar, 25° C., 70% relative humidity, seven days, read-out: control compared to the untreated check (radial growth)
Phakopsora pachyrhizi = Phakopsora pachyrhizi test in soybean, preventive, in vivo on plants; details: in Glycine max, read-out: Efficacy (% control), disease severity compared to the untreated check

CCN(C)C=Nc1cc(Cl)cc(Cc2ccccc2)c1C [Compound 79, N′-(3-benzyl-5-chloro-2-methylphenyl)-N-ethyl-N-methylformimidamide]
≥ 70%: inhibition of growth at 300 ppm (Pyricularia oryzae) | inhibition of growth at 300 ppm (Rhizoctonia solani) | inhibition of growth at 300 ppm (Botrytis cinerea) | inhibition of growth at 300 ppm (Alternaria solani) | inhibition of growth at 300 ppm (Colletotrichum capsici) | inhibition of growth at 300 ppm [1] | pest or weed control at 500 ppm (Phakopsora pachyrhizi)

CCN(C)C=Nc1cc(F)cc(Cc2cc(C)cc(F)c2)c1C [Compound 235, N-ethyl-N′-(5-fluoro-3-(3-fluoro-5-methylbenzyl)-2-methylphenyl)-N-methylformimidamide]
≥ 70%: inhibition of growth at 300 ppm (Pyricularia oryzae) | inhibition of growth at 300 ppm (Rhizoctonia solani) | inhibition of growth at 300 ppm (Botrytis cinerea) | inhibition of growth at 300 ppm (Alternaria solani) | inhibition of growth at 300 ppm (Colletotrichum capsici) | inhibition of growth at 300 ppm [1] | pest or weed control at 500 ppm (Phakopsora pachyrhizi)

CCN(C)C=Nc1cc(F)cc(Nc2cccc(C)c2)c1C [Compound 31, N-ethyl-N′-(5-fluoro-2-methyl-3-(m-tolylamino)phenyl)-N-methylformimidamide]
≥ 70%: inhibition of growth at 300 ppm (Pyricularia oryzae) | inhibition of growth at 300 ppm (Rhizoctonia solani) | inhibition of growth at 300 ppm (Botrytis cinerea) | inhibition of growth at 300 ppm (Alternaria solani) | inhibition of growth at 300 ppm (Colletotrichum capsici) | inhibition of growth at 300 ppm [1] | pest or weed control at 500 ppm (Phakopsora pachyrhizi)

CCN(C)C=Nc1cc(C)cc(Cc2c(F)cccc2Cl)c1Cl [Compound 92, N′-(2-chloro-3-(2-chloro-6-fluorobenzyl)-5-methylphenyl)-N-ethyl-N-methylformimidamide]
≥ 70%: inhibition of growth at 300 ppm (Pyricularia oryzae) | inhibition of growth at 300 ppm (Rhizoctonia solani) | inhibition of growth at 300 ppm (Botrytis cinerea) | inhibition of growth at 300 ppm (Alternaria solani) | inhibition of growth at 300 ppm (Colletotrichum capsici) | inhibition of growth at 300 ppm [1] | pest or weed control at 500 ppm (Phakopsora pachyrhizi)

CCN(C)C=Nc1cc(F)cc(Cc2ccc(F)c(C)c2)c1C [Compound 203, N-ethyl-N′-(5-fluoro-3-(4-fluoro-3-methylbenzyl)-2-methylphenyl)-N-methylformimidamide]
≥ 70%: inhibition of growth at 300 ppm (Pyricularia oryzae) | inhibition of growth at 300 ppm (Rhizoctonia solani) | inhibition of growth at 300 ppm (Botrytis cinerea) | inhibition of growth at 300 ppm (Alternaria solani) | inhibition of growth at 300 ppm (Colletotrichum capsici) | inhibition of growth at 300 ppm [1] | pest or weed control at 500 ppm (Phakopsora pachyrhizi)

CCN(C)C=Nc1cc(Cl)cc(Cc2ccccc2Cl)c1C [Compound 89, N′-(5-chloro-3-(2-chlorobenzyl)-2-methylphenyl)-N-ethyl-N-methylformimidamide]
≥ 70%: inhibition of growth at 300 ppm (Pyricularia oryzae) | inhibition of growth at 300 ppm (Rhizoctonia solani) | inhibition of growth at 300 ppm (Botrytis cinerea) | inhibition of growth at 300 ppm (Alternaria solani) | inhibition of growth at 300 ppm (Colletotrichum capsici) | inhibition of growth at 300 ppm [1] | pest or weed control at 500 ppm (Phakopsora pachyrhizi)

CCN(C)C=Nc1cc(C)cc(Cc2ccc(F)c(F)c2)c1Cl [Compound 67, N′-(2-chloro-3-(3,4-difluorobenzyl)-5-methylphenyl)-N-ethyl-N-methylformimidamide]
≥ 70%: inhibition of growth at 300 ppm (Pyricularia oryzae) | inhibition of growth at 300 ppm (Rhizoctonia solani) | inhibition of growth at 300 ppm (Botrytis cinerea) | inhibition of growth at 300 ppm (Alternaria solani) | inhibition of growth at 300 ppm (Colletotrichum capsici) | inhibition of growth at 300 ppm [1] | pest or weed control at 500 ppm (Phakopsora pachyrhizi)

CCN(C)C=Nc1cc(F)cc(N(C)c2cccc(C)c2)c1C [Compound 38, N-ethyl-N′-(5-fluoro-2-methyl-3-(methyl(m-tolyl)amino)phenyl)-N-methylformimidamide]
≥ 70%: inhibition of growth at 300 ppm (Pyricularia oryzae) | inhibition of growth at 300 ppm (Rhizoctonia solani) | inhibition of growth at 300 ppm (Botrytis cinerea) | inhibition of growth at 300 ppm (Alternaria solani) | inhibition of growth at 300 ppm (Colletotrichum capsici) | inhibition of growth at 300 ppm [1] | pest or weed control at 500 ppm (Phakopsora pachyrhizi)

CCN(C)C=Nc1cc(C)cc(Cc2c(F)cccc2F)c1Cl [Compound 91, N′-(2-chloro-3-(2,6-difluorobenzyl)-5-methylphenyl)-N-ethyl-N-methylformimidamide]
≥ 70%: inhibition of growth at 300 ppm (Pyricularia oryzae) | inhibition of growth at 300 ppm (Rhizoctonia solani) | inhibition of growth at 300 ppm (Botrytis cinerea) | inhibition of growth at 300 ppm (Alternaria solani) | inhibition of growth at 300 ppm (Colletotrichum capsici) | inhibition of growth at 300 ppm [1] | pest or weed control at 500 ppm (Phakopsora pachyrhizi)

CCN(C)C=Nc1cc(C)cc(Nc2cccc(C(C)C)c2)c1Cl [Compound 58, N′-(2-chloro-3-((3-isopropylphenyl)amino)-5-methylphenyl)-N-ethyl-N-methylformimidamide]
≥ 70%: inhibition of growth at 300 ppm (Pyricularia oryzae) | inhibition of growth at 300 ppm (Rhizoctonia solani) | inhibition of growth at 300 ppm (Botrytis cinerea) | inhibition of growth at 300 ppm (Alternaria solani) | inhibition of growth at 300 ppm (Colletotrichum capsici) | inhibition of growth at 300 ppm [1] | pest or weed control at 500 ppm (Phakopsora pachyrhizi)

CCN(C)C=Nc1cc(F)cc(Cc2cccc(Cl)c2)c1C [Compound 144, N′-(3-(3-chlorobenzyl)-5-fluoro-2-methylphenyl)-N-ethyl-N-methylformimidamide]
≥ 70%: inhibition of growth at 300 ppm (Pyricularia oryzae) | inhibition of growth at 300 ppm (Rhizoctonia solani) | inhibition of growth at 300 ppm (Botrytis cinerea) | inhibition of growth at 300 ppm (Alternaria solani) | inhibition of growth at 300 ppm (Colletotrichum capsici) | inhibition of growth at 300 ppm [1] | pest or weed control at 500 ppm (Phakopsora pachyrhizi)

CCN(C)C=Nc1cc(C)cc(Cc2ccc(Br)c(C)c2)c1Cl [Compound 216, N′-(3-(4-bromo-3-methylbenzyl)-2-chloro-5-methylphenyl)-N-ethyl-N-methylformimidamide]
≥ 70%: inhibition of growth at 300 ppm (Pyricularia oryzae) | inhibition of growth at 300 ppm (Rhizoctonia solani) | inhibition of growth at 300 ppm (Botrytis cinerea) | inhibition of growth at 300 ppm (Alternaria solani) | inhibition of growth at 300 ppm (Colletotrichum capsici) | inhibition of growth at 300 ppm [1] | pest or weed control at 500 ppm (Phakopsora pachyrhizi)

CCN(C)C=Nc1cc(Cl)cc(Cc2ccc(F)c(C)c2)c1C [Compound 128, N′-(5-chloro-3-(4-fluoro-3-methylbenzyl)-2-methylphenyl)-N-ethyl-N-methylformimidamide]
≥ 70%: inhibition of growth at 300 ppm (Pyricularia oryzae) | inhibition of growth at 300 ppm (Rhizoctonia solani) | inhibition of growth at 300 ppm (Botrytis cinerea) | inhibition of growth at 300 ppm (Alternaria solani) | inhibition of growth at 300 ppm (Colletotrichum capsici) | inhibition of growth at 300 ppm [1] | pest or weed control at 500 ppm (Phakopsora pachyrhizi)

CCN(C)C=Nc1cc(F)cc(Nc2ccc(SC(F)(F)F)cc2)c1C [Compound 16, N-ethyl-N′-(5-fluoro-2-methyl-3-((4-((trifluoromethyl)thio)phenyl)amino)phenyl)-N-methylformimidamide]
≥ 70%: inhibition of growth at 300 ppm (Pyricularia oryzae) | inhibition of growth at 300 ppm (Rhizoctonia solani) | inhibition of growth at 300 ppm (Botrytis cinerea) | inhibition of growth at 300 ppm (Alternaria solani) | inhibition of growth at 300 ppm (Colletotrichum capsici) | inhibition of growth at 300 ppm [1] | pest or weed control at 500 ppm (Phakopsora pachyrhizi)

CCN(C)C=Nc1cc(C)cc(Nc2cc(Cl)ccc2C)c1Cl [Compound 100, N′-(2-chloro-3-((5-chloro-2-methylphenyl)amino)-5-methylphenyl)-N-ethyl-N-methylformimidamide]
≥ 70%: inhibition of growth at 300 ppm (Pyricularia oryzae) | inhibition of growth at 300 ppm (Rhizoctonia solani) | inhibition of growth at 300 ppm (Botrytis cinerea) | inhibition of growth at 300 ppm (Alternaria solani) | inhibition of growth at 300 ppm (Colletotrichum capsici) | inhibition of growth at 300 ppm [1] | pest or weed control at 500 ppm (Phakopsora pachyrhizi)
